Laboratory results from patent publication US8722731B2, “Furanyl compounds and the use thereof” (NovoMedix, LLC, priority 2010, dated 2014).
Where two headings read alike, the source gives them in different places.

Assays:
RT-4 = experiment: IC50 cell-based assay, adherent cells, RT-4; conditions: Homo sapiens, Bladder, papilloma, 72 hours, read-out: IC50 of Compounds in Adherent Cell Types
Protocol: (§1) In one embodiment, the IC50s of the compounds provided herein were determined in cell-based assays using adherent cells. In one embodiment, the activity of the compounds provided herein were determined in a cell-based assay using the triple negative breast cancer cell line MDA-MB-468. In one embodiment, the adherent cells used in the cell-based assays may be a cell type selected from Table 1. In one embodiment, the cell-based assay may be carried out as provided herein. On day 0, cells were seeded at 20,000 cells per well in 100 µL of media into individual wells of a 96-well tissue culture plate. The next day, compounds were diluted to twice the desired final concentration and added in 100 µL of media for a final volume of 200 μL. Standard solutions for each compound were prepared at 1000× concentration in DMSO. The highest concentration was 30 mM. Serial 1:1 dilutions were made from there for a 6- or 9-point curve (e.g., 30 mM, 15 mM, 7.5 mM, etc). Compounds were then diluted 1:500 in media, and 100 µL of the resulting solution was added to each well for a final dilution of 1:1000. Each concentration of compound was tested in triplicate. Cells were incubated at 37° C. with 5% CO2. After 72 hours, 20 μL of CellTiter 96 Aqueous One Solution Cell Proliferation Assay (Promega) was added to each well. Cells were placed back in the incubator, and the absorbance at 490 nm was read after 2-3 hours. The concentration of compound that decreased the number of metabolically active cells by 50% was determined and reported as the IC50. “Percent Viability” was determined by subtracting the average background value (media only) and expressed as a ratio to the average value obtained from cells treated with only DMSO.

U87-MG = experiment: IC50 cell-based assay, adherent cells, U87-MG; conditions: Homo sapiens, U-87 MG, Brain, glioblastoma, 72 hours, read-out: IC50 of Compounds in Adherent Cell Types
Protocol: as §1

[1] = tested on: triple negative breast cancer cell line MDA-MB-468; experiment: IC50 cell-based assay, adherent cells, MDA-MB-468; conditions: Homo sapiens
Protocol: as §1
The IC50s of the compounds provided herein were determined in cell-based assay using triple negative breast cancer cell line MDA-MB-468.

MCF-7 = experiment: IC50 cell-based assay, adherent cells, MCF-7; conditions: Homo sapiens, MCF7, Breast, ER+, 72 hours, read-out: IC50 of Compounds in Adherent Cell Types
Protocol: as §1

SKBR-3 = experiment: IC50 cell-based assay, adherent cells, SKBR-3; conditions: Homo sapiens, SK-BR-3, Breast, ER−, 72 hours, read-out: IC50 of Compounds in Adherent Cell Types
Protocol: as §1

MDA-MB-361 = experiment: IC50 cell-based assay, adherent cells, MDA-MB-361; conditions: Homo sapiens, Breast, Brain met Her2-neu + ER +, 72 hours, read-out: IC50 of Compounds in Adherent Cell Types
Protocol: as §1

MDA-MB-231 = experiment: IC50 cell-based assay, adherent cells, MDA-MB-231; conditions: Homo sapiens, Breast, triple neg, 72 hours, read-out: IC50 of Compounds in Adherent Cell Types
Protocol: as §1

1937 = experiment: IC50 cell-based assay, adherent cells, 1937; conditions: Breast, triple neg, 72 hours, read-out: IC50 of Compounds in Adherent Cell Types
Protocol: as §1

HT-29 = experiment: IC50 cell-based assay, adherent cells, HT-29; conditions: Homo sapiens, Colorectal, adenocarcinoma, 72 hours, read-out: IC50 of Compounds in Adherent Cell Types
Protocol: as §1

SK-MEL-28 = experiment: IC50 cell-based assay, adherent cells, SK-MEL-28; conditions: Homo sapiens, Melanoma, 72 hours, read-out: IC50 of Compounds in Adherent Cell Types
Protocol: as §1

Caki-1 = experiment: IC50 cell-based assay, adherent cells, Caki-1; conditions: Homo sapiens, Kidney, clear cell carc., skin met, 72 hours, read-out: IC50 of Compounds in Adherent Cell Types
Protocol: as §1

Hep-G2 = experiment: IC50 cell-based assay, adherent cells, Hep-G2; conditions: Homo sapiens, HepG2, Liver, hepatocellular carcinoma, 72 hours, read-out: IC50 of Compounds in Adherent Cell Types
Protocol: as §1

A549 = experiment: IC50 cell-based assay, adherent cells, A549; conditions: Homo sapiens, Lung, NSCLC, 72 hours, read-out: IC50 of Compounds in Adherent Cell Types
Protocol: as §1

H-460 = experiment: IC50 cell-based assay, adherent cells, H-460; conditions: Homo sapiens, NCI-H460, Lung, large cell carcinoma, 72 hours, read-out: IC50 of Compounds in Adherent Cell Types
Protocol: as §1

OVCAR-3 = experiment: IC50 cell-based assay, adherent cells, OVCAR-3; conditions: Homo sapiens, Ovarian, adenocarcinoma, 72 hours, read-out: IC50 of Compounds in Adherent Cell Types
Protocol: as §1

AsPC-1 = experiment: IC50 cell-based assay, adherent cells, AsPC-1; conditions: Homo sapiens, ASPC1, Pancreas, carcinoma, 72 hours, read-out: IC50 of Compounds in Adherent Cell Types
Protocol: as §1

Panc-1 = experiment: IC50 cell-based assay, adherent cells, Panc-1; conditions: Homo sapiens, Pancreas, epitheloid carcinoma, 72 hours, read-out: IC50 of Compounds in Adherent Cell Types
Protocol: as §1

FaDu = experiment: IC50 cell-based assay, adherent cells, FaDu; conditions: Homo sapiens, Pharynx, squamous cell, 72 hours, read-out: IC50 of Compounds in Adherent Cell Types
Protocol: as §1

A431 = experiment: IC50 cell-based assay, adherent cells, A431; conditions: Homo sapiens, A-431, Skin, epidermoid carcinoma, 72 hours, read-out: IC50 of Compounds in Adherent Cell Types
Protocol: as §1

HL-60 = experiment: IC50 cell-based assay, suspension cells, HL-60; conditions: Homo sapiens, Leukemia, AML, read-out: IC50 of Compounds in Suspension Cell Types
Protocol: as §1
(§2) In one embodiment, the IC50s of the compounds provided herein were determined in cell-based assays using suspension cells. In one embodiment, the activity of the compounds provided herein were determined in a cell-based assay using the JeKo-1 cell line (mantle cell lymphoma) or the Pfeiffer cell line (diffuse large B-cell lymphoma). In one embodiment, the suspension cells used in the cell-based assays may be a cell type selected from Table 2. Assays with suspension cells were similar except that 40,000-60,000 cells were added to each well and compounds were added immediately after cell plating.

MHH-CALL-4 = experiment: IC50 cell-based assay, suspension cells, MHH-CALL-4; conditions: MHHCALL4, Leukemia, B-ALL (CRLF2 Hi), read-out: IC50 of Compounds in Suspension Cell Types
Protocol: as §1, §2

Kg1a = experiment: IC50 cell-based assay, suspension cells, Kg1a; conditions: Homo sapiens, KG-1a, Leukemia, AML, read-out: IC50 of Compounds in Suspension Cell Types
Protocol: as §1, §2

Nalm-6 = experiment: IC50 cell-based assay, suspension cells, Nalm-6; conditions: Homo sapiens, Leukemia, B-ALL, read-out: IC50 of Compounds in Suspension Cell Types
Protocol: as §1, §2

Nalm-6-VR = experiment: IC50 cell-based assay, suspension cells, Nalm-6-VR; conditions: Leukemia, B-ALL, Vincristine resistant, read-out: IC50 of Compounds in Suspension Cell Types
Protocol: as §1, §2

SupB15 = experiment: IC50 cell-based assay, suspension cells, SupB15; conditions: Homo sapiens, SUP-B15, Leukemia, B-ALL (Philadelphia chromosome+), read-out: IC50 of Compounds in Suspension Cell Types
Protocol: as §1, §2

Z138, JeKo-1 = experiment: IC50 cell-based assay, suspension cells, Z138, JeKo-1; conditions: Lymphoma, Mantle cell, read-out: IC50 of Compounds in Suspension Cell Types
Protocol: as §1, §2

Pfeiffer = experiment: IC50 cell-based assay, suspension cells, Pfeiffer; conditions: Homo sapiens, Lymphoma, Diffuse large b-cell, read-out: IC50 of Compounds in Suspension Cell Types
Protocol: as §1, §2

[2] = MDA-MB-468, Breast, triple neg, 72 hours, Table 1, read-out: IC50 of Compounds in Adherent Cell Types
[3] = MDA-MB-468 cells, Table 3, read-out: IC50 of Compounds in MDA-MB-468 Cells

Compound | IC50 (RT-4) [µM] | IC50 (U87-MG) [µM] | IC50 [1, 2] [µM] | IC50 [1, 3] [µM] | IC50 (MCF-7) [µM] | IC50 (SKBR-3) [µM] | IC50 (MDA-MB-361) [µM] | IC50 (MDA-MB-231) [µM] | IC50 1937 [µM] | IC50 (HT-29) [µM] | IC50 (SK-MEL-28) [µM] | IC50 (Hep-G2) [µM] | IC50 (Panc-1) [µM] | IC50 (HL-60) [µM] | IC50 (MHH-CALL-4) [µM] | IC50 (Kg1a) [µM] | IC50 (Nalm-6) [µM] | IC50 (SupB15) [µM] | IC50 (Z138, JeKo-1) [µM] | IC50 (Pfeiffer) [µM] | further results
Cc1oc(-c2ccccc2)cc1C(=O)Nc1cc(C(F)(F)F)cc(C(F)(F)F)c1 [Compound 4, 2-Methyl-5-phenyl-furan-3-carboxylic acid (3,5-bis-trifluoromethyl-phenyl)-amide] |  |  | 10 to 20 | > 30 | > 20 | > 20 | > 20 | > 20 | > 20 |  |  |  | > 20 | > 20 | > 20 | > 20 | > 20 | > 20 | > 20 | > 20 | 
O=C(Nc1cc(F)cc(C(F)(F)F)c1)c1cc(-c2ccc(Br)cc2)oc1C(F)(F)F [Compound 7, 5-(4-Bromo-phenyl)-2-trifluoromethyl-furan-3-carboxylic acid (3-fluoro-5-trifluoromethyl-phenyl)-amide] | > 20 | > 20 | < 5 | 5 | 5 to 10 | 5 to 10 | > 20 | 10 to 20 | 5 to 10 | > 20 | 10 to 20 | 10 to 20 | > 20 | 5 to 10 | 10 to 20 | 10 to 20 | 5 to 10 | 5 to 10 | 5 to 10 | 10 to 20 | IC50 (A549): > 20 µM; IC50 (H-460): > 20 µM; IC50 (OVCAR-3): 5 to 10 µM; IC50 (AsPC-1): 10 to 20 µM; IC50 (FaDu): 5 to 10 µM; IC50 (A431): 10 to 20 µM; IC50 (Nalm-6-VR): 10 to 20 µM
COc1ccc(-c2cc(C(=O)Nc3cc(C(F)(F)F)cc(C(F)(F)F)c3)c(C(F)(F)F)o2)cc1 [Compound 8, 5-(4-Methoxy-phenyl)-2-trifluoromethyl-furan-3-carboxylic acid (3,5-bis-trifluoromethyl-phenyl)-amide] |  |  | < 5 | 2 |  |  |  |  |  |  |  |  |  |  |  |  | < 5 |  |  |  | 

Further lines, with some results ahead:

IC50 (RT-4) [µM] | IC50 (U87-MG) [µM] | IC50 [1, 2] [µM] | IC50 [1, 3] [µM] | IC50 (MCF-7) [µM] | IC50 (SKBR-3) [µM] | IC50 (MDA-MB-361) [µM] | IC50 (MDA-MB-231) [µM] | IC50 1937 [µM] | IC50 (HT-29) [µM] | IC50 (SK-MEL-28) [µM] | IC50 (Hep-G2) [µM] | IC50 (Panc-1) [µM] | IC50 (HL-60) [µM] | IC50 (MHH-CALL-4) [µM] | IC50 (Kg1a) [µM] | IC50 (Nalm-6) [µM] | IC50 (SupB15) [µM] | IC50 (Z138, JeKo-1) [µM] | IC50 (Pfeiffer) [µM] | Compound | further results
> 20 | 5 to 10 | < 5 | 1.5 | 5 to 10 | < 5 | < 5 | 5 to 10 | < 5 | 10 to 20 | 5 to 10 | 5 to 10 | 5 to 10 | < 5 | < 5 | < 5 | 5 to 10 | < 5 | < 5 | < 5 | O=C(Nc1cc(C(F)(F)F)cc(C(F)(F)F)c1)c1cc(-c2ccc(Br)cc2)oc1C(F)(F)F [Compound 3, 5-(4-Bromophenyl)-N-(3,5-bistrifluoromethylphenyl)-2-trifluoromethylfuran-3-carboxamide] | IC50 (Caki-1): 5 to 10 µM; IC50 (A549): < 5 µM; IC50 (H-460): 10 to 20 µM; IC50 (OVCAR-3): < 5 µM; IC50 (AsPC-1): 5 to 10 µM; IC50 (FaDu): < 5 µM; IC50 (A431): 5 to 10 µM; IC50 (Nalm-6-VR): < 5 µM
> 20 | 10 to 20 | < 5 | 4 | < 5 | < 5 | 10 to 20 | 5 to 10 | 5 to 10 | > 20 | 5 to 10 | 10 to 20 | < 5 | < 5 | 5 to 10 | 5 to 10 | < 5 | < 5 | < 5 | 5 to 10 | O=C(Nc1cc(F)cc(C(F)(F)F)c1)c1cc(-c2ccc(Cl)cc2)oc1C(F)(F)F [Compound 5, 5-(4-Chloro-phenyl)-2-trifluoromethyl-furan-3-carboxylic acid (3-fluoro-5-trifluoromethyl-phenyl)-amide] | IC50 (Caki-1): 5 to 10 µM; IC50 (A549): 5 to 10 µM; IC50 (H-460): > 20 µM; IC50 (OVCAR-3): 5 to 10 µM; IC50 (AsPC-1): 5 to 10 µM; IC50 (FaDu): 5 to 10 µM; IC50 (A431): > 20 µM; IC50 (Nalm-6-VR): < 5 µM
> 20 | 10 to 20 | < 5 | 4 | 5 to 10 | < 5 | 10 to 20 | 5 to 10 | 5 to 10 | > 20 | 5 to 10 | > 20 | 5 to 10 | 5 to 10 | 10 to 20 | 10 to 20 | < 5 | 5 to 10 | 5 to 10 | 10 to 20 | O=C(Nc1cc(F)cc(C(F)(F)F)c1)c1cc(-c2ccccc2)oc1C(F)(F)F [Compound 6, 5-Phenyl-2-trifluoromethyl-furan-3-carboxylic acid (3-fluoro-5-trifluoromethyl-phenyl)-amide] | IC50 (Caki-1): 5 to 10 µM; IC50 (A549): 5 to 10 µM; IC50 (H-460): > 20 µM; IC50 (OVCAR-3): 5 to 10 µM; IC50 (AsPC-1): 5 to 10 µM; IC50 (FaDu): 5 to 10 µM; IC50 (A431): 5 to 10 µM; IC50 (Nalm-6-VR): < 5 µM
